Assay [1] addresses Human SGLT2 (Homo sapiens, UniProt P31639). Nature of the assay: cell-based. As for the experimental part:
(§1) Sodium-dependent Glucose Uptake in Chinese Hamster Ovary (CHO) Cells Expressing SGLT1 and SGLT2 Co-transporters Parental CHO-K (CHOK) cells (commonly used mammalian cells for gene overexpression studies) expressing human or mouse SGLT1 and SGLT2 were utilized in this study. Cells were seeded into 96-well plates. Cells were then washed one time with 0.15 ml assay buffer (137 mM NaCl, 5 mM KCl, 1 mM CaCl2, 1 mM MgCl2, 50 mM HEPES, pH 7.4) at 37°C. […] Then, 5 µl of 6 mM alpha-methyl-D-glucopyranoside (AMG, a selective SGLT1/2 substrate)/^14C-AMG (0.07 µCi) was added to the cells and incubated at 37°C for 2 hours. Next, the cells were washed 3 times with 0.15 ml ice-cold phosphate-buffered saline (PBS). After the final wash was aspirated, 50 µl of microscint 20 (Packard, Meriden, Connecticut, USA) was added. The plate was counted by TopCount (Packard, Meriden, Connecticut, USA).
(§2) Statistical analysis was performed using the program Prism (Graphpad, Monrovia, California, USA). Differences between groups were evaluated using 1-way […] with Dunnett's multiple comparison test or student's t-test (unpaired), as appropriate. Probabilities less than 5% (P<0.05) were considered to be statistically significant. […] All data are presented as mean ± standard error.

The target of assay [2] is Mouse SGLT2 (Mus musculus, UniProt Q923I7). The assay is described as follows: cell-based. As to the method:
as §1, §2

The target in assay [3] is T1, Rat SGLT1 (Rattus norvegicus, UniProt P53790).
T1 construct: expressed in transfected cells; host or cells: CHO-K (CHOK) cells
T1 sequence (P53790 1-665): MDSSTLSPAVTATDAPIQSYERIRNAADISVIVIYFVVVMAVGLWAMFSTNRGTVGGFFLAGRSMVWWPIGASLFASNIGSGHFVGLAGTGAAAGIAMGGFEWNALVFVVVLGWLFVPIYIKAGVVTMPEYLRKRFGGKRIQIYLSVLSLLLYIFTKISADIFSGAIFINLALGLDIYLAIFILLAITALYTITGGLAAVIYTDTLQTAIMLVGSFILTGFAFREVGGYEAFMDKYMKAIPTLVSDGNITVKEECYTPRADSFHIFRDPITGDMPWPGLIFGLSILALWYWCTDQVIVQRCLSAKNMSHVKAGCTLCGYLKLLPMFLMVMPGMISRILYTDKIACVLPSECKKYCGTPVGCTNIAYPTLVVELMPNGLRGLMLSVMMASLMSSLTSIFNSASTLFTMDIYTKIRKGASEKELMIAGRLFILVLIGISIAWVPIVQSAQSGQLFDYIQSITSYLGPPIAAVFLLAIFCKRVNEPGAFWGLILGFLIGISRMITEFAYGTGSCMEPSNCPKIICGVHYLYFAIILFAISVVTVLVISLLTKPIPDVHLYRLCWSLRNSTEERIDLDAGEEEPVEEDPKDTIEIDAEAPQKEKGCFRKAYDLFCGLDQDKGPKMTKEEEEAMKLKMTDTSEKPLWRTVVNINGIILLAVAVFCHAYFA
The assay is described as follows: 14C-AMG uptake in CHOK cells expressing rat SGLT1. To be noted: mean of 2 experiments. The assay is classed as cell-based. As for the experimental part:
Cells were seeded into 96-well plates.
All data are presented as mean ± standard error.

For assay [4], the target named is T2, glucose transporter 1 (GLUT1) (Rattus norvegicus, UniProt P11167).
T2 construct: endogenous in cells; host or cells: L6 rat skeletal muscle myoblasts
T2 sequence (P11167 1-492): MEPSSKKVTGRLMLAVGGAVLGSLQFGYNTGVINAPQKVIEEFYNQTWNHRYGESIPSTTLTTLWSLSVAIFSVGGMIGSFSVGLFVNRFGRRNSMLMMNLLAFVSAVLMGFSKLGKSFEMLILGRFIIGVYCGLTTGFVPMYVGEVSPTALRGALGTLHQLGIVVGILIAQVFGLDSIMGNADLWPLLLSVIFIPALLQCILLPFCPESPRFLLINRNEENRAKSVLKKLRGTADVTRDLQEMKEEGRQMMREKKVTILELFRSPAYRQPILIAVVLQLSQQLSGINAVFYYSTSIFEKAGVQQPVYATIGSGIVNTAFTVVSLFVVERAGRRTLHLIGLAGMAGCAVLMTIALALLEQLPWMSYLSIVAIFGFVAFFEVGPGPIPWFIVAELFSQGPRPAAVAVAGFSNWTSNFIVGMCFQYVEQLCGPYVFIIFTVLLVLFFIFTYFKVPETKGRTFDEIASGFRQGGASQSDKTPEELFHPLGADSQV
The assay is described as follows: 3H-2-deoxy-glucose uptake in L6 myoblast cells. The class given is cell-based. As to the method:
Cells were maintained in Dulbecco's modified Eagle's medium containing 5.6 mM glucose supplemented with 10% fetal bovine serum, were seeded in 24-well plates at a density of 3.0×10^5 cells/well and cultured for 24 hours in an atmosphere of 5% CO2 at 37°C. […] The transport reaction was initiated by adding 50 µl of 4.5 mM 2-DG (a substrate for GLUTs)/^3H-2-DG (0.625 µCi) followed by incubation for 15 minutes at room temperature. The 2-DG uptake was halted by aspiration of the incubation mixture. Cells were immediately washed 3 times with ice-cold PBS. Samples were extracted with 0.3 N NaOH, and radioactivity was determined by liquid scintillation (Packard, Boston, Massachusetts, USA).

In assay [5] the test system is ZF rats. The assay is described as follows: 3-week treatment of ZF rats (body weight, UGE, calorimetry). The class given is in vivo. To be noted: ZF rat, 3 mg/kg, 3 weeks. From the text: Four rodent models were used in these experiments: (1) male C57BL/6J mice fed with a high-fat diet (D-12492 with 60 kcal% fat, Research Diets, Inc, New Jersey, USA) (diet-induced obese, insulin resistantmice [DIO]); (2) male C57BL/ksj-db/db hyperglycemic mice; (3) male Zucker fatty (ZF) obese, insulin resistant rats; and (4) male ZDF obese, hyperglycemic rats. All animals were housed according to standard procedures following a protocol approved by the IACUC in Drug Discovery at Johnson & Johnson Pharmaceutical Research & Development, LLC.
Body weight, food intake, and BG levels were monitored weekly. UGE and indirect calorimetry were conducted in the fourth week of treatment during the compound treatment. […] Body weight, food intake, and BG were measured weekly during the 19-day treatment period. UGE, body fat, and indirect calorimetric studies were conducted at the end of this study.

Marks after values point to notes of the source that are not given here.

Chain of Mouse SGLT2 (Q923I7 whole entry): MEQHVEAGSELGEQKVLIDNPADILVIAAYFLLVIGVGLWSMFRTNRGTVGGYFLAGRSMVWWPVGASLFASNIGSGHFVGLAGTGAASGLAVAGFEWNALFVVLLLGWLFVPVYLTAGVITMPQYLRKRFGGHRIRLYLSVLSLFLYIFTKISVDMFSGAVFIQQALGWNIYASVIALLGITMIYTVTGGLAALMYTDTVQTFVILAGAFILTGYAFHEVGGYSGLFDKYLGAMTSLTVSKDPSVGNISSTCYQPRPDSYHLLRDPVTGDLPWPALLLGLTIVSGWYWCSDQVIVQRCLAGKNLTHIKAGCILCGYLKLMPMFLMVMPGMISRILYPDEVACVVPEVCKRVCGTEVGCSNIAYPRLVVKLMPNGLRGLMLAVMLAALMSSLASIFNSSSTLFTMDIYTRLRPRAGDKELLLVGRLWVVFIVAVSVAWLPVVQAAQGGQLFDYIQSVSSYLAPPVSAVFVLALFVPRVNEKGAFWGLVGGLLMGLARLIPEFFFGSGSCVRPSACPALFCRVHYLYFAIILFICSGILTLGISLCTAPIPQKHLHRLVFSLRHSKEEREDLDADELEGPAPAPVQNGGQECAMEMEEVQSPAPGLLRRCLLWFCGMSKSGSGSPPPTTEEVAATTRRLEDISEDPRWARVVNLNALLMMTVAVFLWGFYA
Chain of Human SGLT2 (P31639 whole entry): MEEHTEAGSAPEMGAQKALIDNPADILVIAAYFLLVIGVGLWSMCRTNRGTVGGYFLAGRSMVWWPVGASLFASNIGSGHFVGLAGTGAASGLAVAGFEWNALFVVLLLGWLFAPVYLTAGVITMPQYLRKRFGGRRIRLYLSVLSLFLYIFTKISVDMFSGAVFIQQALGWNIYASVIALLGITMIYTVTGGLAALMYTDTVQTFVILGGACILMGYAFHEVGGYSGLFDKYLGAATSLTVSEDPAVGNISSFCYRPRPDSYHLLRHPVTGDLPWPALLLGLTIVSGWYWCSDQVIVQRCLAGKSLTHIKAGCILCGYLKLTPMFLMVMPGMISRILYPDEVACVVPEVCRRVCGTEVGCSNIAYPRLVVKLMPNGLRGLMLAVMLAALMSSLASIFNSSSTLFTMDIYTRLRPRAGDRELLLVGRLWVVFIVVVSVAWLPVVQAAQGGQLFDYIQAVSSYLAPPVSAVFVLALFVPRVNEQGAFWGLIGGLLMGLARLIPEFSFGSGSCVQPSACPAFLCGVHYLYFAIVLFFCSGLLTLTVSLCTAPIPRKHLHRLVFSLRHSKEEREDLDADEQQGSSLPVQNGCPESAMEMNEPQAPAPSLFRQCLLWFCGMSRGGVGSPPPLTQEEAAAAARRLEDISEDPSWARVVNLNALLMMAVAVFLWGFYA

A word on the IC50: it is the concentration that gives 50% inhibition. Lower therefore signals inhibition by little substance. The term inhibition denotes the drop in the measured response relative to a control, in per cent. For the compound `Cc1ccc([C@@H]2O[C@H](CO)[C@@H](O)[C@H](O)[C@H]2O)cc1Cc1ccc(-c2ccc(F)cc2)s1` [canagliflozin, Canagliflozin], the half-maximal inhibitory concentration (IC50) is 4.4 ± 1.2 nM in assay [1]; 2 nM in assay [2]; 571 nM in assay [3]; more than 10000 nM in assay [4] (3H-2-DG uptake, rat L6 myoblast cells). Besides, the inhibition at 10 µM in assay [4] (10 µM, L6 myoblasts, read-out: inhibition of facilitative GLUT-mediated 3H-2-DG uptake) was less than 50%. The “Feeding efficiency index (body weight gain/food intake)” value in assay [5] (vehicle 0.30±0.01) worked out at 0.25±0.01. Further, the RER in assay [5] (vehicle 1.10±0.01) is 1.06±0.01 ^b. The UGE in assay [5] (vehicle 1.8±1.1) was 29.10±3.5 ^b mg/4 h. Moreover, the Epididymal fat weight in assay [5] (vehicle 10.8±0.3) was 9.5±0.3 ^b g. The Liver weight in assay [5] (vehicle 28.5±0.8) is 25.0±1.4 ^b g. Further, the “Fed BG” value in assay [5] (vehicle 149.6±22.9) was 118.9±4.3 ^b mg/dl. Also, in assay [5] (vehicle 437.9±11.5), the Body weight is given as 408.1±7.7 ^b g. The Total food intake in assay [5] (vehicle 645.3±21.2) is 647.9 ± 18.9 g. The “Oxygen consumption (VO2)” value in assay [5] (vehicle 1560±28) was determined as 26.37 ± 0.55 mL/min/kg.

The record behind these values is publication PMC3280264 (PLoS ONE, 2012).
